IC50 data for 26 compounds are collected here from patent publication US8088761B2, “Enzyme inhibitors” (Cancer Research Technology Limited, priority 2005, dated 2012).

pIC50: −log10 of the molar value. Read-outs that look alike come from different tables or passages of the source.

One test deals with HCT116 cells. Briefly: Cell viability assay (MTT) in HCT116 cell line. The following applies: Homo sapiens, HCT-116, 72 hrs, IC50 range, read-out: HCT116 cell growth inhibition. In kind it is cell-based. The essentials:
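MTT read-out (4 hrs, 37 °C, DMSO extraction) following 72 hrs of treatment with 0-50 μM Aurora inhibitor. HCT116 cells were plated a day earlier and tested in triplicate; IC50 derived from the curve.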

The target in the next test is T1, Aurora-A (Homo sapiens, UniProt O14965).
T1 sequence (O14965 1-403): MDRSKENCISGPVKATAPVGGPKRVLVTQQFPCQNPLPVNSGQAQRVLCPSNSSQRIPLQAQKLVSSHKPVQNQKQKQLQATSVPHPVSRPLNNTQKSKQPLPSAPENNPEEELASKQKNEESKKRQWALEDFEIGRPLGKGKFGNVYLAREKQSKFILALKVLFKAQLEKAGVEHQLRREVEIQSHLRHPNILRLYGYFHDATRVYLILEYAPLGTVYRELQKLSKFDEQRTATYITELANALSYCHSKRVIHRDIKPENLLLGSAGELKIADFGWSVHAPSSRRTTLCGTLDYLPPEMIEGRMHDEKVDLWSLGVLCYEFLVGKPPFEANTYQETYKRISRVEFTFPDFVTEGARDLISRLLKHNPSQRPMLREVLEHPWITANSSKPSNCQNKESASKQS
As to the kind of experiment: Flashplate Aurora A enzyme inhibition assay. In kind it is biochemical. The following applies: read-out: Aurora-A inhibition. The essentials: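 This is a radiometric Flashplate format: plates were precoated with DTT, and compound (in 2% DMSO) was mixed with kinase buffer (pH 7.5 Tris, MgCl2, NaCl) containing 1 mM MBP, 20 μM ATP and ^33P-ATP. The reaction was started with 250 ng Aurora-A per well and incubated 2 h at RT. It was then stopped by 10 mM sodium pyrophosphate washing, and plates were scintillation-counted.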

Consider `CC(c1ccncc1)N1CCN(c2c(Br)cnc3[nH]c(-c4ccc(N(C)C)cc4)nc23)CC1` (stereo not shown) [Example 53, 4-(6-Bromo-7-(4-(1-(pyridin-4-yl)ethyl)piperazin-1-yl)-3H-imidazo[4,5-b]pyridin-2-yl)-N,N-dimethylaniline], for which the pIC50 in the test with HCT116 cells was 5.70 to 6.30; at Aurora-A (Flashplate assay, IC50 range), greater than 6.30.
For `NC(=O)C1CC1c1nc2c(N3CCN(CC(=O)Nc4nccs4)CC3)c(Br)cnc2[nH]1` (stereo not shown) [Example 46, 2-(6-Bromo-7-(4-(2-oxo-2-(thiazol-2-ylamino)ethyl)piperazin-1-yl)-3H-imidazo[4,5-b]pyridin-2-yl)cyclopropanecarboxamide], in that order: 4.30 to 5.70 and 5.70 to 6.30.
With `COc1ccc(-c2nc3c(N4CCN(Cc5cscn5)CC4)c(Br)cnc3[nH]2)cc1` [Example 154, 4-((4-(6-Bromo-2-(4-methoxyphenyl)-3H-imidazo[4,5-b]pyridin-7-yl)piperazin-1-yl)methyl)thiazole], the pIC50 with HCT116 cells and at Aurora-A was greater than 6.30 throughout.
Turning to `CN1CCN(Cc2cccc(-c3nc4c(N5CCN(Cc6cccnc6)CC5)c(Br)cnc4[nH]3)c2)CC1` [Example 58, 6-Bromo-2-(3-((4-methylpiperazin-1-yl)methyl)phenyl)-7-(4-(pyridin-3-ylmethyl)piperazin-1-yl)-3H-imidazo[4,5-b]pyridine], the pIC50 in the test with HCT116 cells was 5.70 to 6.30; at Aurora-A (Flashplate assay, IC50 range), greater than 6.30.
With `CN(C)Cc1ccc(-c2nc3c(N4CCN(Cc5cccnc5)CC4)c(Br)cnc3[nH]2)cc1` [Example 61, 1-(4-(6-Bromo-7-(4-(pyridin-3-ylmethyl)piperazin-1-yl)-3H-imidazo[4,5-b]pyridin-2-yl)phenyl)-N,N-dimethylmethanamine], the pIC50 in the test with HCT116 cells was 5.70 to 6.30; at Aurora-A (Flashplate assay, IC50 range), greater than 6.30.
For `Clc1cnc2[nH]c(-c3ccc(Cn4cccn4)cc3)nc2c1N1CCN(Cc2cccnc2)CC1` [Example 138, 2-(4-((1H-Pyrazol-1-yl)methyl)phenyl)-6-chloro-7-(4-(pyridin-3-ylmethyl)piperazin-1-yl)-3H-imidazo[4,5-b]pyridine], in that order: 5.70 to 6.30 and greater than 6.30.
The like results for `CN(C)c1ccc(-c2nc3c(N4CCN(CC(=O)N5CCCC5)CC4)c(Br)cnc3[nH]2)cc1` [Example 25, 2-(4-(6-Bromo-2-(4-(dimethylamino)phenyl)-3H-imidazo[4,5-b]pyridin-7-yl)piperazin-1-yl)-1-(pyrrolidin-1-yl)ethanone] were, in that order, 4.30 to 5.70 and greater than 6.30.
Regarding `O=C(CN1CCN(c2c(Cl)cnc3[nH]c(-c4ccc5c(c4)OCCO5)nc23)CC1)Nc1nccs1` [Example 87, 2-{4-[6-Chloro-2-(2,3-dihydro-benzo[1,4]dioxin-6-yl)-3H-imidazo[4,5-b]pyridin-7-yl]-piperazin-1-yl}-N-thiazol-2-yl-acetamide], the pIC50 was 5.70 to 6.30 in the test with HCT116 cells and greater than 6.30 on Aurora-A (Flashplate assay, IC50 range).
The like results for `CC(c1ccccc1)N1CCN(c2c(Br)cnc3[nH]c(-c4ccc(CN5CCOCC5)cc4)nc23)CC1` (stereo not shown) [Example 70, 6-Bromo-2-(4-morpholin-4-ylmethyl-phenyl)-7-[4-(1-phenyl-ethyl)-piperazin-1-yl]-3H-imidazo[4,5-b]pyridine] were, in that order, 5.70 to 6.30 and greater than 6.30.
The like results for `CN(C)c1ccc(-c2nc3c(N4CCN(CC(=O)Nc5nccs5)CC4)c(C#N)cnc3[nH]2)cc1` [Example 62, 2-(4-(6-Cyano-2-(4-(dimethylamino)phenyl)-3H-imidazo[4,5-b]pyridin-7-yl)piperazin-1-yl)-N-(thiazol-2-yl)acetamide] were, in that order, 5.70 to 6.30 and greater than 6.30.
The like results for `CC(C)c1nc(CN2CCN(c3c(Br)cnc4[nH]c(-c5ccc(CN6CCOCC6)cc5)nc34)CC2)cs1` [Example 155, 4-(4-(6-Bromo-7-(4-((2-isopropylthiazol-4-yl)methyl)piperazin-1-yl)-3H-imidazo[4,5-b]pyridin-2-yl)benzyl)morpholine] were, in that order, 4.30 to 5.70 and greater than 6.30.
For `COc1ccc(-c2nc3c(N4CCN(C(C)c5ccncc5)CC4)c(Br)cnc3[nH]2)cc1` (stereo not shown) [Example 54, 6-Bromo-2-(4-methoxyphenyl)-7-(4-(1-(pyridin-4-yl)ethyl)piperazin-1-yl)-3H-imidazo[4,5-b]pyridine], the pIC50 with HCT116 cells is greater than 6.30; at Aurora-A (Flashplate assay, IC50 range), greater than 6.30.
On to `COc1ccc(-c2nc3c(N4CCN(Cc5ccc(C(F)(F)F)nc5)CC4)c(Br)cnc3[nH]2)cc1` [Example 124, 6-Bromo-2-(4-methoxyphenyl)-7-(4-((6-(trifluoromethyl)pyridin-3-yl)methyl)piperazin-1-yl)-3H-imidazo[4,5-b]pyridine], for which the pIC50 was 5.70 to 6.30 in the test with HCT116 cells and greater than 6.30 at Aurora-A (Flashplate assay, IC50 range).
For `COc1ccc(-c2nc3c(N4CCN(CC5CC5)CC4)c(Br)cnc3[nH]2)cc1` [Example 73, 6-Bromo-7-(4-cyclopropylmethyl-piperazin-1-yl)-2-(4-methoxy-phenyl)-3H-imidazo[4,5-b]pyridine], in that order: 5.70 to 6.30 and 5.70 to 6.30.
On to `CN(C)Cc1ccc(-c2nc3c(N4CCN(CC(=O)Nc5nccs5)CC4)c(Br)cnc3[nH]2)cc1` [Example 8, 2-{4-[6-Bromo-2-(4-dimethylaminomethyl-phenyl)-3H-imidazo[4,5-b]pyridin-7-yl]-piperazin-1-yl}-N-thiazol-2-yl-acetamide], for which the pIC50 is 5.70 to 6.30 with HCT116 cells and greater than 6.30 on Aurora-A (Flashplate assay, IC50 range).
For `COc1ccc(-c2nc3c(N4CCN(Cc5ccc(OC)nc5)CC4)c(Br)cnc3[nH]2)cc1` [Example 116, 6-Bromo-2-(4-methoxyphenyl)-7-(4-((6-methoxypyridin-3-yl)methyl)piperazin-1-yl)-3H-imidazo[4,5-b]pyridine], in that order: 5.70 to 6.30 and greater than 6.30.
The like results for `Brc1cnc2[nH]c(-c3ccc(OCCN4CCOCC4)cc3)nc2c1N1CCN(Cc2cccnc2)CC1` [Example 112, 4-(2-(4-(6-Bromo-7-(4-(pyridin-3-ylmethyl)piperazin-1-yl)-3H-imidazo[4,5-b]pyridin-2-yl)phenoxy)ethyl)morpholine] were, in that order, 5.70 to 6.30 and greater than 6.30.
For `Brc1cnc2[nH]c(-c3ccc(Cn4cccn4)cc3)nc2c1N1CCN(Cc2ccncc2)CC1` [Example 78, 2-(4-((1H-Pyrazol-1-yl)methyl)phenyl)-6-bromo-7-(4-(pyridin-4-ylmethyl)piperazin-1-yl)-3H-imidazo[4,5-b]pyridine], the pIC50 is greater than 6.30 in the test with HCT116 cells and greater than 6.30 on Aurora-A (Flashplate assay, IC50 range).
Consider `COc1ccc(-c2nc3c(N4CCN(Cc5coc(C(C)C)n5)CC4)c(Br)cnc3[nH]2)cc1` [Example 145, 4-((4-(6-bromo-2-(4-methoxyphenyl)-3H-imidazo[4,5-b]pyridin-7-yl)piperazin-1-yl)methyl)-2-isopropyloxazole], for which the pIC50 in the test with HCT116 cells is greater than 6.30; at Aurora-A (Flashplate assay, IC50 range), greater than 6.30.
`COc1ccc(-c2nc3c(N4CCN(CC(C)C)CC4)c(Cl)cnc3[nH]2)cc1` [Example 36, 6-Chloro-7-(4-isobutylpiperazin-1-yl)-2-(4-methoxyphenyl)-3H-imidazo[4,5-b]pyridine]: the pIC50 in the test with HCT116 cells was greater than 6.30; on Aurora-A (Flashplate assay, IC50 range), greater than 6.30.
`Brc1cnc2[nH]c(-c3ccc(CN4CCOCC4)cc3)nc2c1N1CCN(Cc2nccs2)CC1` [Example 152, 4-(4-(6-Bromo-7-(4-(thiazol-2-ylmethyl)piperazin-1-yl)-3H-imidazo[4,5-b]pyridin-2-yl)benzyl)morpholine]: the pIC50 in the test on HCT116 cells is 5.70 to 6.30; at Aurora-A (Flashplate assay, IC50 range) it was greater than 6.30.
For `COc1ccc(-c2nc3c(N4CCN(Cc5cccnc5)CC4)c(Br)cnc3[nH]2)cn1` [Example 94, 6-Bromo-2-(6-methoxypyridin-3-yl)-7-(4-(pyridin-3-ylmethyl)piperazin-1-yl)-3H-imidazo[4,5-b]pyridine], in that order: 4.30 to 5.70 and greater than 6.30.
For `NCc1nc2c(N3CCN(Cc4cccnc4)CC3)c(Br)cnc2[nH]1` [Example 100, (6-Bromo-7-(4-(pyridin-3-ylmethyl)piperazin-1-yl)-3H-imidazo[4,5-b]pyridin-2-yl)methanamine], in that order: 4.30 to 5.70 and 5.00 to 5.70.
For `Cc1noc(C)c1CN1CCN(c2c(Br)cnc3[nH]c(-c4ccc(CN5CCOCC5)cc4)nc23)CC1` [Example 128, 4-(4-(6-Bromo-7-(4-((3,5-dimethylisoxazol-4-yl)methyl)piperazin-1-yl)-3H-imidazo[4,5-b]pyridin-2-yl)benzyl)morpholine], in that order: greater than 6.30 and greater than 6.30.
For `FC(F)(F)c1ccc(CN2CCN(c3c(Br)cnc4[nH]c(-c5ccc(CN6CCOCC6)cc5)nc34)CC2)cn1` [Example 125, 4-(4-(6-Bromo-7-(4-((6-(trifluoromethyl)pyridin-3-yl)methyl)piperazin-1-yl)-3H-imidazo[4,5-b]pyridin-2-yl)benzyl)morpholine], the pIC50 is greater than 6.30 in the test on HCT116 cells and greater than 6.30 on Aurora-A (Flashplate assay, IC50 range).
With `CCN1CCN(c2c(Cl)cnc3[nH]c(-c4ccc(Cn5cccn5)cc4)nc23)CC1` [Example 143, 2-(4-((1H-pyrazol-1-yl)methyl)phenyl)-6-chloro-7-(4-ethylpiperazin-1-yl)-3H-imidazo[4,5-b]pyridine], the pIC50 in the test with HCT116 cells is greater than 6.30; on Aurora-A (Flashplate assay, IC50 range), greater than 6.30.
